Results reported in patent US20230123334A1, “AMINO LIPID COMPOUND, PREPARATION METHOD THEREFOR, AND APPLICATION THEREOF” (SHENZHEN SHENXIN BIOTECHNOLOGY CO., LTD., priority 2020, published 2023).

Legend:
Format in all cases: cell-based
[1] = tested on: embryonic stem cells (hESC2); assay: Screening as DNA vectors in embryonic stem cells, flow cytometry; settings: 75 ng plasmid DNA, 48 hours after transfection, flow cytometer
Description: (§1) Cell line: embryonic stem cells (hESC2, cultured according to reported methods: Stem Cells, 2005, 23, 544-549)
(§2) Medium: mTeSR1 (STEMCELL)
(§3) Mode of screening: cell transfection on 96-well plates
(§4) Detection (readout): percentage of the number of GFP fluorescent cells relative to the total number of cells. Lipofectamine Stem was used as the positive control.
Method: an 8-channel pipette was used for sample addition. The contents shown were for a single well of a 96-well flat plate.
1. Stem cells were cultured to 3-5×10^4 cells per well in a 96-well plate treated with matrigel.
2. The compound (0.01 mmol) prepared in Example 1 was dissolved in 1 mL of anhydrous ethanol. After ultrasonically dissolved, 10 μL of the resultant amino lipid solution in ethanol was taken and mixed with 5 μL of DOPE solution in ethanol ([…]). The obtained mixture was then added with 35 μL of 0.2 M sodium acetate buffer (pH 5.6), and vortexed at a constant rotating speed for 30 s. Then, 4 μL was taken from the obtained product and added to 46 μL of 0.02 M sodium acetate buffer (pH 5.6), and vortexed at a constant rotating speed for 30 s to form a liposome solution. 5 μL of this liposome solution was mixed with 75 ng of plasmid DNA (pSin-EGFP-IRES-Puro) dissolved in 5 μL of 0.02 M sodium acetate buffer, and allowed to stay at room temperature for 30 min to form a lipid/DNA transfection complex.
3. 10 μL of the lipid/DNA transfection complex was incubated at room temperature for 30 min, followed by addition of 90 μL mTeSR1 medium was added and mixing with a pipette. 100 μL of the mixture was added to separate wells of a 96-well culture plate and placed in an incubator containing 5% CO2 at 37° C.
4. 48 hours after transfection, the cells were digested with 0.05% Trypsin-EDTA. The cells were resuspended in a PBS buffer and filtered. The cell suspension was placed in a flow cytometer and the number of GFP-expressing cells in no less than 2000 cells was measured so as to obtain the absolute efficiency of cell transfection. The relative efficiency of cell transfection was obtained by comparing the cell transfection efficiency with the positive control Lipofectamine Stem.

MCF7 cells [2] = assay: Transfection of MCF7 cell line, mRNA vectors; settings: 50 ng EGFP mRNA per well
Procedure: (§5) Cell line: MCF7 cells (ATCC HTB-22)
Medium: DMEM supplemented with 10 fetal bovine serum (Invitrogen)
(§6) Screening: cell transfection on 96-well plates
Detection (readout): percentage of the number of GFP fluorescent cells relative to the total number of cells (the total number of cells was determined using nucleus dye Hoechst). Lipofectamine2000 (Invitrogen) was used as the positive control.
Method: the experimental method was basically the same with Example 4, and the mass of EGFP mRNA (TriLink) for transfection was 50 ng per well.

Hela cells [3] = assay: Transfection of Hela cell line, mRNA vectors; settings: 50 ng EGFP mRNA per well
Outline: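 Transfection efficiency was scored as GFP-fluorescent cells over Hoechst-stained total nuclei, with Lipofectamine2000 as reference reagent. Each well of HeLa cells, grown in DMEM plus 10% FBS, received 50 ng EGFP mRNA.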

cardiomyocytes [4] = assay: Screening as DNA vectors in cardiomyocytes; parameters: concentration or dose not given beside the values; settings: method as Example 4
Procedure: Cell line: cardiomyocytes (obtained from induced differentiation of hESC according to reported methods: J. Mol. Cell. Cardiol. 2011, 51, 288-298)
(§7) Medium: DMEM supplemented with 10% fetal bovine serum (Invitrogen)
as §3
(§8) Detection (readout): percentage of the number of GFP fluorescent cells relative to the total number of cells (the total number of cells was determined using nucleus dye Hoechst). Lipofectamine Stem (Invitrogen) was used as the positive control, according to the manufacturer's instructions.
(§9) Method: the experimental method was basically the same with Example 4.

[5] = tested on: embryonic stem cells (hESC2); assay: Screening as mRNA vectors in embryonic stem cells; settings: 50 ng EGFP mRNA per well
Procedure: as §1, §2
Mode of screening: cell transfection on 96-well plate
as §4
Method: the experimental method was basically the same with Example 10, and the mass of EGFP mRNA for transfection was 50 ng per well.

cardiomyocytes [6] = assay: Screening as mRNA vectors in cardiomyocytes; settings: 50 ng EGFP mRNA per well
Procedure: Cell line: cardiomyocytes (obtained from induced differentiation of hESC according to reported methods: J Mol. Cell. Cardiol. 2011, 51, 288-298)
as §7, §3, §8
Method: the experimental method was basically the same with Example 4, and the mass of EGFP mRNA for transfection was 50 ng per well.

MCF7 cells [7] = assay: Transfection of MCF7 cell line, DNA vectors; parameters: concentration or dose not given beside the values; settings: plasmid DNA, GFP cells / total cells
Procedure: as §5
Medium DMEM supplemented with […] fetal bovine serum
as §6
Detection (readout): percentage of the number of GFP fluorescent cells relative to the total number of cells (the total number of cells was determined using nucleus dye Hoechst). Lipofectamine2000 was used as the positive control, according to the manufacturer's instructions.
as §9

Hela cells [8] = assay: Transfection of Hela cell line, DNA vectors; settings: 75 ng plasmid DNA, GFP cells / total cells
Outline: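 Amino lipid/DOPE liposomes in sodium acetate pH 5.6 were complexed with 75 ng psin-EGFP-IRES-Puro plasmid for 30 min at room temperature, then mixed with 3-5×10^4 Hela cells in DMEM/10% FBS at 37° C. Hoechst stain after 20-24 h, imaging after a further 20-24 h. Efficiency = GFP-positive cells / total nuclei.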

HEK293 cells [9] = assay: Preliminary screening as mRNA vectors, EGFP mRNA transfection of HEK293 cells; settings: HEK293 cells, 96-well plates, EGFP mRNA 50 ng per well; percentage of GFP fluorescent cells relative to total number of cells (Hoechst)
Outline: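 Screening format: EGFP mRNA transfection (50 ng/well) into HEK293 in 10% FBS-supplemented DMEM. Percent green fluorescent cells, normalised to Hoechst nuclear count, gave the value; Lipofectamine2000 was the reference transfectant.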

HEK293 cells [10] = assay: Preliminary screening as DNA vectors, GFP transfection of HEK293 cells; settings: HEK293 cells; lipid/DOPE liposome with 75 ng plasmid DNA (psin-EGFP-IRES-Puro); number of cells expressing GFP divided by total number of nuclei (Hoechst)
Outline: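 First, amino lipid and DOPE were vortexed in sodium acetate buffer (pH 5.6) to form liposomes. Next, these were held with 75 ng EGFP plasmid at room temperature for 30 min. Finally, HEK293 cells were added, cultured at 37° C., Hoechst-stained, and GFP+/total nuclei scored by imaging.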

Structure (SMILES)	Absolute DNA transfection efficiency in embryonic stem cells [1] [%]	Absolute mRNA transfection efficiency in MCF7 cells (MCF7 cells [2]) [%]	Absolute mRNA transfection efficiency in Hela cells (Hela cells [3]) [%]	Absolute DNA transfection efficiency in cardiomyocytes (cardiomyocytes [4]) [%]	Absolute mRNA transfection efficiency in embryonic stem cells [5] [%]	Absolute mRNA transfection efficiency in cardiomyocytes (cardiomyocytes [6]) [%]	Absolute DNA transfection efficiency in MCF7 cells (MCF7 cells [7]) [%]	Absolute DNA transfection efficiency in Hela cells (Hela cells [8]) [%]	Absolute mRNA transfection efficiency in HEK293 cells (HEK293 cells [9]) [%]	Absolute DNA transfection efficiency in HEK293 cells (HEK293 cells [10]) [%]
CCCCCCCCCCCNc1nc(NCCN2CCCC2)nc(SCCCCCCCC)n1 [Compound S8N11D3]	0.2	8.0	26.2	0.5	2.4	6.2	3.6	26.2		
CCCCCCCCCCCNc1nc(NCCN2CCN(C)CC2)nc(SCCCCCCCC)n1 [Compound S8N11D5]	1.1	9.1	26.5	3.0	1.6	3.7	16.7	26.5		
CCCCCCCCCCCNc1nc(NCCCN(C)C)nc(SCCCCCCCC)n1 [Compound S8N11D6]	0.2	6.7	50.2	1.4	1.9	5.3	18.0	50.1		
CCCCCCCCCCCNc1nc(NCCCN2CCOCC2)nc(SCCCCCCCC)n1 [Compound S8N11D8]	0.7	0.1	6.8	2.1	1.0	1.9	4.4	6.8		
CCCCCCCCCNc1nc(NCC2CCN(C)CC2)nc(SCCCCCCCCC)n1 [Compound S9N9D10]		29.6	17.6				38.9	17.6		
CCCCCCCCCCCCCCCCSc1nc(NCCN2CCCC2)nc(SCCCCCCCCC)n1 [Compound S9S16D3]		3.0	0.0				14.1	0.0	25.3	0.0
CCCCCCCCCCCCCCCCSc1nc(NCCCN(C)C)nc(SCCCCCCCCC)n1 [Compound S9S16D6]		34.2	27.8				39.7	27.8	71.5	55.4
CCCCCCCCCCCCCCCCSc1nc(NCCCN2CCOCC2)nc(SCCCCCCCCC)n1 [Compound S9S16D8]		7.7	11.6				6.2	11.6	11.2	23.2
CCCCCCCCCCCCCCCCSc1nc(NCCCN2CCN(C)CC2)nc(SCCCCCCCCC)n1 [Compound S9S16D9]		33.8	6.9				23.0	6.9	41.4	13.9
CCCCCCCCCCCCCCCCSc1nc(NCC2CCN(C)CC2)nc(SCCCCCCCCC)n1 [Compound S9S16D10]		46.0	28.6				36.9	28.6	66.4	56.9
CCCCCCCCCCCSc1nc(NCCCCCCC)nc(NCCN2CCCC2)n1 [Compound S11N7D3]		5.8	9.8				4.4	9.8		
CCCCCCCCCCCSc1nc(NCCCCCCC)nc(NCCN2CCN(C)CC2)n1 [Compound S11N7D5]		3.4	11.4				4.7	11.4		
CCCCCCCCCCCSc1nc(NCCCCCCC)nc(NCCCN(C)C)n1 [Compound S11N7D6]		4.2	17.0				16.2	17.0		
CCCCCCCCCCCSc1nc(NCCCCCCC)nc(NCCCN2CCOCC2)n1 [Compound S11N7D8]		3.2	6.7				1.7	6.7		
CCCCCCCCCCCSc1nc(NCCCCCCC)nc(NCCCN2CCN(C)CC2)n1 [Compound S11N7D9]		5.1	8.3				5.8	8.3		
CCCCCCCCCCCSc1nc(NCCCCCCC)nc(NCC2CCN(C)CC2)n1 [Compound S11N7D10]		9.0	14.7				10.1	14.7		
